We go through 12 molecules from ChEMBL document CHEMBL1152749, “Haemolytic activity, cytotoxicity and membrane cell permeabilization of semi-synthetic and natural lupane- and oleanane-type saponins” (Bioorg Med Chem, 2009).

Each structure is given as a SMILES string.

Data set [1] relates to DLD-1. Briefly: Cytotoxicity against human DLD1 cells after 48 hrs by resazurin reduction test. It counts as functional, cell-based. The note with it: DLD-1, 48 h. In general terms: Alamar Blue is a resazurin reagent that responds to reducing activity.
Data set [2] is described as follows: Toxicity in sheep erythrocytes assessed as induction of hemolysis. It counts as cell-based, Ovis aries, Erythrocyte. The note with it: read-out: HD50 (the source's name).
Data set [3] concerns DLD-1. Kind of data set: Cell membrane permeabilization in human DLD1 cells assessed as drug level causing decrease in calcein fluorescence. The data set is classed as ADME, cell-based.
In data set [4] the test system is A549. Briefly: Cytotoxicity against human A549 cells after 48 hrs by resazurin reduction test. The following applies: A549, 48 h. The data set is classed as functional, cell-based.
Data set [5] relates to A549. Briefly: Cell membrane permeabilization in human A549 cells assessed as drug level causing decrease in calcein fluorescence. The data set is classed as ADME, cell-based.
The nature of data set [6]: Cytotoxicity against human WS1 cells after 48 hrs by resazurin reduction test. It counts as cell-based. The following applies: WS1, 48 h.
Data set [7] in a line: Cell membrane permeabilization in human WS1 cells assessed as drug level causing decrease in calcein fluorescence. The data set is classed as ADME, cell-based.

`CC1(C)CC[C@]2(C(=O)O)CC[C@]3(C)C(=CC[C@@H]4[C@@]5(C)CC[C@H](O[C@@H]6OC[C@H](O)[C@H](O)[C@H]6O)[C@@](C)(CO)[C@@H]5CC[C@]43C)[C@@H]2C1`: the IC50 in the data set on DLD-1 [1] is 57 µM; in the data set on DLD-1 [3], 54 µM; in the data set with A549 [4], 58 µM; in the data set on A549 [5] it was 40 µM; in data set [6], 30 µM; in data set [7], 51 µM. Besides, the HC50 in data set [2] turned out to be 12 µM.

Regarding `C[C@@H]1O[C@@H](O[C@H]2[C@H](O[C@H]3CC[C@]4(C)[C@H]5CC=C6[C@@H]7CC(C)(C)CC[C@]7(C(=O)O)CC[C@@]6(C)[C@]5(C)CC[C@H]4C3(C)C)OC[C@H](O)[C@@H]2O)[C@H](O)[C@H](O)[C@H]1O`, the IC50 is 30 µM with DLD-1 [1]; 4 µM in the data set with DLD-1 [3]; 15 µM in the data set with A549 [4]; 3 µM in the data set on A549 [5]; 14 µM in data set [6]; 2.8 µM in data set [7]. In addition, in data set [2], the HC50 was determined as 2 µM.

In the case of `C=C(C)[C@@H]1CC[C@]2(CO)CC[C@]3(C)[C@H](CC[C@@H]4[C@@]5(C)CC[C@H](O[C@@H]6O[C@@H](CO)[C@H](O)[C@H]6O)C(C)(C)[C@@H]5CC[C@]43C)[C@@H]12`, the IC50 was > 100 µM in the data set on DLD-1 [1]; > 200 µM with DLD-1 [3]; > 100 µM in the data set on A549 [4]; > 200 µM in the data set with A549 [5]; > 100 µM in data set [6]; > 200 µM in data set [7]. In data set [2], the HC50 was > 100 µM.

Regarding `C=C(C)[C@@H]1CC[C@]2(C(=O)O)CC[C@]3(C)[C@H](CC[C@@H]4[C@@]5(C)CC[C@H](O[C@@H]6O[C@H](CO)[C@H](O)[C@H](O)[C@H]6O)C(C)(C)[C@@H]5CC[C@]43C)[C@@H]12`, the IC50 is > 100 µM in the data set on DLD-1 [1]; > 200 µM in the data set on DLD-1 [3]; > 100 µM in the data set on A549 [4]; > 200 µM in the data set with A549 [5]; > 100 µM in data set [6]; > 200 µM in data set [7]. In addition, the HC50 in data set [2] was > 100 µM.

In the case of `CC1(C)CC[C@]2(C(=O)O)CC[C@]3(C)C(=CC[C@@H]4[C@@]5(C)CC[C@H](O[C@@H]6O[C@H](CO)[C@@H](O)[C@H](O)[C@H]6O)[C@@](C)(CO)[C@@H]5CC[C@]43C)[C@@H]2C1` [Hederagenin-3-O-beta-D-glucopyranoside], the IC50 is 59 µM in the data set on DLD-1 [1]; 89 µM in the data set on DLD-1 [3]; 59 µM in the data set with A549 [4]; 65 µM with A549 [5]; 32 µM in data set [6]; 102 µM in data set [7]. Moreover, the HC50 in data set [2] came to 16 µM.

For the molecule `C[C@@H]1O[C@@H](O[C@H]2[C@H](O[C@H]3CC[C@]4(C)[C@H]5CC=C6[C@@H]7CC(C)(C)CC[C@]7(C(=O)O)CC[C@@]6(C)[C@]5(C)CC[C@H]4C3(C)C)OC[C@H](O[C@@H]3O[C@H](CO)[C@@H](O)[C@H](O)[C@H]3O)[C@@H]2O)[C@H](O)[C@H](O)[C@H]1O` [HEDERACOLCHISIDE A1], the IC50 in the data set on DLD-1 [1] was 16 µM; with DLD-1 [3] it was 4 µM; in the data set on A549 [4], 15 µM; in the data set with A549 [5] it was 4 µM; in data set [6] it was 5.7 µM; in data set [7], 3 µM. Also, the HC50 in data set [2] was 1.7 µM.

Take `C=C(C)[C@@H]1CC[C@]2(C(=O)O)CC[C@]3(C)[C@H](CC[C@@H]4[C@@]5(C)CC[C@H](O[C@H]6OC[C@@H](O)[C@@H](O)[C@@H]6O)C(C)(C)[C@@H]5CC[C@]43C)[C@@H]12`: the IC50 is 17 µM in the data set on DLD-1 [1]; > 200 µM in the data set on DLD-1 [3]; 10 µM in the data set with A549 [4]; > 200 µM in the data set with A549 [5]; 47 µM in data set [6]; > 200 µM in data set [7]. Besides, the HC50 in data set [2] is > 100 µM.

Take `C=C(C)[C@@H]1CC[C@]2(CO)CC[C@]3(C)[C@H](CC[C@@H]4[C@@]5(C)CC[C@H](O[C@@H]6OC[C@H](O)[C@H](O)[C@H]6O[C@@H]6O[C@@H](C)[C@H](O)[C@@H](O)[C@H]6O)C(C)(C)[C@@H]5CC[C@]43C)[C@@H]12`: the IC50 was > 100 µM in the data set with DLD-1 [1]; > 200 µM in the data set on DLD-1 [3]; > 100 µM in the data set with A549 [4]; > 200 µM in the data set on A549 [5]; > 100 µM in data set [6]; > 200 µM in data set [7]. Further, in data set [2], the HC50 was > 100 µM.

In the case of `C[C@@H]1O[C@@H](O[C@H]2[C@H](O[C@H]3CC[C@@]4(C)[C@@H](CC[C@]5(C)[C@@H]4CC=C4[C@@H]6CC(C)(C)CC[C@]6(C(=O)O)CC[C@]45C)[C@]3(C)CO)OC[C@H](O[C@@H]3O[C@H](CO)[C@@H](O)[C@H](O)[C@H]3O)[C@@H]2O)[C@H](O)[C@H](O)[C@H]1O` [HEDERACOLCHISIDE A], the IC50 was 62 µM with DLD-1 [1]; 159 µM in the data set on DLD-1 [3]; 59 µM with A549 [4]; 110 µM in the data set with A549 [5]; 58 µM in data set [6]; 86 µM in data set [7]. In addition, in data set [2], the HC50 came to 22 µM.

Regarding `C=C(C)[C@@H]1CC[C@]2(C(=O)O)CC[C@]3(C)[C@H](CC[C@@H]4[C@@]5(C)CC[C@H](O[C@@H]6OC[C@H](O)[C@H](O)[C@H]6O[C@@H]6O[C@@H](C)[C@H](O)[C@@H](O)[C@H]6O)C(C)(C)[C@@H]5CC[C@]43C)[C@@H]12`, the IC50 with DLD-1 [1] was > 100 µM; with DLD-1 [3], > 200 µM; in the data set on A549 [4], > 100 µM; in the data set with A549 [5] it was > 200 µM; in data set [6], > 100 µM; in data set [7], > 200 µM. Besides, in data set [2], the HC50 came to 78 µM.

As to `C=C(C)[C@@H]1CC[C@]2(C(=O)O)CC[C@]3(C)[C@H](CC[C@@H]4[C@@]5(C)CC[C@H](O[C@@H]6O[C@@H](C)[C@H](O)[C@@H](O)[C@H]6O)C(C)(C)[C@@H]5CC[C@]43C)[C@@H]12`, the IC50 in the data set on DLD-1 [1] was 3.9 µM; in the data set with DLD-1 [3], > 200 µM; in the data set with A549 [4] it was 2.6 µM; in the data set with A549 [5], > 200 µM; in data set [6], 31 µM; in data set [7], > 200 µM. Moreover, the HC50 in data set [2] is > 100 µM.

On to `C=C(C)[C@@H]1CC[C@]2(C(=O)O)CC[C@]3(C)[C@H](CC[C@@H]4[C@@]5(C)CC[C@H](O[C@@H]6O[C@@H](CO)[C@H](O)[C@H]6O)C(C)(C)[C@@H]5CC[C@]43C)[C@@H]12`, for which the IC50 with DLD-1 [1] is > 100 µM; in the data set with DLD-1 [3], > 200 µM; with A549 [4], > 100 µM; in the data set on A549 [5] it was > 200 µM; in data set [6], > 100 µM; in data set [7], > 200 µM. Further, in data set [2], the HC50 is > 100 µM.

In general, IC50 refers to the midpoint of a concentration-inhibition curve.
